In brackets after ≈: the same amount, converted by molar mass. Peptide text beside a SMILES is read from it.
Experiments:
Type in all cases: cell-based
[1] = tested on: Escherichia coli (ATCC 8739); assay: microbe, parasite or virus in culture; conditions: ATCC 8739, 3 h, pH 7.4; read-out: Minimal bactericidal concentration (MBC) E. c.
Source text: (§1) The pathogenic bacterial strains obtained from the ATCC (United States) and NCTC (National Collection of Type Cultures – England) were the Gram-positive: Enterococcus faecalis (ATCC 29212), Staphylococcus aureus (HNCMO112011), Listeria monocytogenes (ATCC 19111) and the Gram-negative: Pseudomonas aeruginosa (ATCC 27853), Escherichia coli (ATCC 8739), Salmonella enterica (ATCC 13076), Klebsiella pneumoniae (NCTC 13440), Acinetobacter baumannii (ATCC 17978).
(§2) Overnight bacterial cultures grown in LB were diluted and grown to OD600 = 0.2–0.6 at 37°C with shaking. After harvesting and washing bacteria in PPB, the suspensions were adjusted to OD600 = 0.1 corresponding to ∼10^7 bacteria/mL. Antimicrobial activity of the peptides and the antibiotics was determined in PPB in 96 well microplates using 10 μL bacterial suspension and 90 μL of the 2-fold serial dilutions of peptides or antibiotics. Peptides were tested from 25 μM to 0.125 μM whereas the antibiotics; carbenicillin (Cb) from Duchefa Biochemie (Prod.No. C0109.0025) and levofloxacin (Lvx) from Sigma-Aldrich (Prod.No. 28266-10MG-F) from […] to 0.1 μM. The microplates were incubated for 3 h at 37°C with 250 rpm shaking and then 5 μl from each sample was placed on LB agar and the growth of bacteria was monitored after overnight incubation at 37°C. The lowest concentration of the antimicrobial agents, which completely eliminated viable bacteria was the minimal bactericidal concentration (MBC).

[2] = tested on: Enterococcus faecalis (ATCC 29212); assay: microbe, parasite or virus in culture; conditions: ATCC 29212, 3 h, pH 7.4; read-out: Minimal bactericidal concentration (MBC) E. f.
Source text: as §1, §2

[3] = tested on: Pseudomonas aeruginosa (ATCC 27853); assay: microbe, parasite or virus in culture; conditions: ATCC 27853, 3 h, pH 7.4; read-out: Minimal bactericidal concentration (MBC) P. a.
Source text: as §1, §2

[4] = tested on: Listeria monocytogenes (ATCC 19111); assay: microbe, parasite or virus in culture; conditions: for MBC: ATCC 19111, 3 h, pH 7.4, read-out: Minimal bactericidal concentration (MBC) L. m.
Source text: as §1, §2

[5] = tested on: Acinetobacter baumannii (ATCC 17978); assay: microbe, parasite or virus in culture; conditions: ATCC 17978, 3 h, pH 7.4; read-out: Minimal bactericidal concentration (MBC) A. b.
Source text: as §1, §2

[6] = tested on: Klebsiella pneumoniae (NCTC 13440); assay: microbe, parasite or virus in culture; conditions: for MBC: NCTC 13440, 3 h, pH 7.4, read-out: Minimal bactericidal concentration (MBC) K. p.
Source text: as §1, §2

[7] = tested on: Salmonella enterica (ATCC 13076); assay: microbe, parasite or virus in culture; conditions: ATCC 13076, 3 h, pH 7.4; read-out: Minimal bactericidal concentration (MBC) S. e.
Source text: as §1, §2

[8] = tested on: Staphylococcus aureus (HNCMO112011); assay: microbe, parasite or virus in culture; conditions: HNCMO112011, 3 h, pH 7.4; read-out: Minimal bactericidal concentration (MBC) S. a.
Source text: as §1, §2

Escherichia coli = conditions: for MBC in Mueller Hinton Broth, panel (A), E. c.: 3 h; for MBC in Mueller Hinton Broth, panel (B), E. c. / MIC in Mueller Hinton Broth, panel (C), E. c.: 20 h
Source text: as §1
(§3) Ca^2+ and Mg^2+ can inhibit the antimicrobial activity of cationic peptides, therefore the MBC and MIC values were also determined in MHB, which unlike PPB contains divalent cations and allows growth of bacteria. Bacteria were grown and prepared similarly except that bacteria were resuspended in MHB. 10 μl of bacteria OD600 = 0.1, supplemented with 45 μl MHB and 45 μl of 2-fold dilution series of peptides, were cultivated for 3 and 20 h at 37°C with shaking. Optical density of each sample was measured (Hidex Sense Microplate Reader with Plate Reader Software version 5064) and 5 μl was placed on LB agar plates after 3 and 20 h treatment. The minimal inhibitory concentration (MIC) corresponded to the lowest concentration, which inhibited growth.

Staphylococcus aureus = conditions: for MBC in Mueller Hinton Broth, panel (A), S. a.: 3 h; for MBC in Mueller Hinton Broth, panel (B), S. a. / MIC in Mueller Hinton Broth, panel (C), S. a.: 20 h
Source text: as §1, §3

Acinetobacter baumannii = conditions: for MBC in Mueller Hinton Broth, panel (A), A. b.: 3 h; for MBC in Mueller Hinton Broth, panel (B), A. b. / MIC in Mueller Hinton Broth, panel (C), A. b.: 20 h
Source text: as §1, §3

[9] = 3 h treatment in PPB (20 mM potassium-phosphate buffer, pH 7.4), 37°C, then plating on LB agar

SMILES	MBC [1] [µM]	MBC [2] [µM]	MBC [3] [µM]	Minimal bactericidal concentration (MBC) L. m. [4, 9]	MBC [4] [µM]	MBC [5] [µM]	Minimal bactericidal concentration (MBC) K. p. [6, 9]	MBC [7] [µM]	MBC [8] [µM]	MBC in Mueller Hinton Broth, panel (A), E. c. (Escherichia coli) [µM]	MBC in Mueller Hinton Broth, panel (B), E. c. (Escherichia coli) [µM]	MIC in Mueller Hinton Broth, panel (C), E. c. (Escherichia coli) [µM]	MBC in Mueller Hinton Broth, panel (A), S. a. (Staphylococcus aureus) [µM]	MBC in Mueller Hinton Broth, panel (B), S. a. (Staphylococcus aureus) [µM]	MIC in Mueller Hinton Broth, panel (C), S. a. (Staphylococcus aureus) [µM]	MBC in Mueller Hinton Broth, panel (A), A. b. (Acinetobacter baumannii) [µM]	MBC in Mueller Hinton Broth, panel (B), A. b. (Acinetobacter baumannii) [µM]	MIC in Mueller Hinton Broth, panel (C), A. b. (Acinetobacter baumannii) [µM]	MBC [6] [µM]
CC[C@H](C)[C@H](NC(=O)[C@H](CS)NC(=O)CNC(=O)[C@H](CC(N)=O)NC(=O)[C@@H](N)CCCNC(=N)N)C(=O)N[C@H](C(=O)N[C@@H](CC(=O)O)C(=O)N1CCC[C@H]1C(=O)N[C@@H](CCCNC(=N)N)C(=O)N[C@@H](CS)C(=O)N1CCC[C@H]1C(=O)N[C@@H](Cc1ccc(O)cc1)C(=O)N[C@@H](CCC(N)=O)C(=O)N[C@@H](CCC(N)=O)C(=O)N[C@@H](CS)C(=O)N[C@@H](CCCNC(=N)N)C(=O)N[C@@H](CCCNC(=N)N)C(=O)N1CCC[C@H]1C(=O)N[C@@H](CC(C)C)C(=O)N[C@@H](Cc1ccc(O)cc1)C(=O)N[C@@H](CS)C(=O)N[C@@H](CCCNC(=N)N)C(=O)N[C@@H](CCCNC(=N)N)C(=O)N[C@@H](CCCNC(=N)N)C(N)=O)C(C)C [A, NCR247] (H-RNGCIVDPRCPYQQCRRPLYCRRR-NH2; N-terminus assumed)	6.3 (≈ 19 µg/mL)	>25	3.1 (≈ 9.33 µg/mL)	resistant at 25 μM	>25	12.5 (≈ 37.6 µg/mL)	resistant at 25 μM	25 (≈ 75.2 µg/mL)	6.3 (≈ 19 µg/mL)	> 25	>25	25 (≈ 75.2 µg/mL)	> 25	>25	>25	> 25	>25	>25	
CC(C)C[C@H](NC(=O)[C@@H]1CCCN1C(=O)[C@H](CCCNC(=N)N)NC(=O)[C@H](CCCNC(=N)N)NC(=O)[C@H](CS)NC(=O)[C@H](CCC(N)=O)NC(=O)[C@@H](N)CCC(N)=O)C(=O)N[C@@H](Cc1ccc(O)cc1)C(=O)N[C@@H](CS)C(=O)N[C@@H](CCCNC(=N)N)C(=O)N[C@@H](CCCNC(=N)N)C(=O)N[C@@H](CCCNC(=N)N)C(N)=O [B, NCR247C] (H-QQCRRPLYCRRR-NH2; N-terminus assumed)	6.3 (≈ 10.3 µg/mL)	>25	25 (≈ 40.8 µg/mL)		>25	25 (≈ 40.8 µg/mL)		>25	>25	> 25	>25	>25	> 25	>25	>25	> 25	>25	>25	>25
CC(C)C[C@H](NC(=O)[C@@H]1CCCN1C(=O)[C@H](CCCNC(=N)N)NC(=O)[C@H](CCCNC(=N)N)NC(=O)[C@H](CS)NC(=O)[C@H](CCC(N)=O)NC(=O)[C@@H](N)CCC(N)=O)C(=O)N[C@@H](Cc1ccc(O)cc1)C(=O)N[C@@H](CS)C(=O)N[C@@H](CCCNC(=N)N)C(=O)N[C@@H](CCCNC(=N)N)C(=O)N[C@@H](CCCNC(=N)N)C(=O)N[C@@H](Cc1c[nH]c2ccccc12)C(=O)N[C@@H](CO)C(=O)N[C@@H](Cc1c[nH]cn1)C(=O)N1CCC[C@H]1C(=O)N[C@@H](CCC(N)=O)C(=O)N[C@@H](Cc1ccccc1)C(=O)N[C@@H](CCC(=O)O)C(=O)N[C@@H](CCCCN)C(N)=O [C, NCR247C-StrepII] (H-QQCRRPLYCRRRWSHPQFEK-NH2; N-terminus assumed)	6.3 (≈ 16.8 µg/mL)	>25	6.3 (≈ 16.8 µg/mL)		>25	25 (≈ 66.9 µg/mL)		>25	6.3 (≈ 16.8 µg/mL)	> 25	>25	>25	> 25	>25	>25	> 25	>25	>25	>25
CSCC[C@H](NC(=O)[C@H](CCCCN)NC(=O)[C@H](Cc1ccccc1)NC(=O)[C@H](CC(N)=O)NC(=O)[C@H](CC(C)C)NC(=O)[C@@H]1CCCN1C(=O)[C@@H](N)CCCNC(=N)N)C(=O)N[C@@H](CC(C)C)C(=O)N[C@@H](CCCNC(=N)N)C(=O)N[C@@H](Cc1ccccc1)C(=O)N[C@@H](Cc1c[nH]c2ccccc12)C(=O)NCC(=O)N[C@@H](CCC(N)=O)C(=O)N[C@@H](CCC(N)=O)C(=O)N[C@@H](CCC(N)=O)C(=O)N[C@@H](CS)C(=O)N[C@@H](CCCNC(=N)N)C(=O)N[C@@H](CCCNC(=N)N)C(=O)N1CCC[C@H]1C(=O)N[C@@H](CC(C)C)C(=O)N[C@@H](Cc1ccc(O)cc1)C(=O)N[C@@H](CS)C(=O)N[C@@H](CCCNC(=N)N)C(=O)N[C@@H](CCCNC(=N)N)C(=O)N[C@@H](CCCNC(=N)N)C(=O)N[C@@H](Cc1c[nH]c2ccccc12)C(=O)N[C@@H](CO)C(=O)N[C@@H](Cc1c[nH]cn1)C(=O)N1CCC[C@H]1C(=O)N[C@@H](CCC(N)=O)C(=O)N[C@@H](Cc1ccccc1)C(=O)N[C@@H](CCC(=O)O)C(=O)N[C@@H](CCCCN)C(N)=O [E, X1-NCR247C-StrepII] (H-RPLNFKMLRFWGQQQCRRPLYCRRRWSHPQFEK-NH2; N-terminus assumed)	3.1 (≈ 13.5 µg/mL)	12.5 (≈ 54.4 µg/mL)	3.1 (≈ 13.5 µg/mL)		3.1 (≈ 13.5 µg/mL)	3.1 (≈ 13.5 µg/mL)		3.1 (≈ 13.5 µg/mL)	3.1 (≈ 13.5 µg/mL)	25 (≈ 109 µg/mL)	6.3 (≈ 27.4 µg/mL)	6.3 (≈ 27.4 µg/mL)	25 (≈ 109 µg/mL)	6.3 (≈ 27.4 µg/mL)	6.3 (≈ 27.4 µg/mL)	12.5 (≈ 54.4 µg/mL)	6.3 (≈ 27.4 µg/mL)	6.3 (≈ 27.4 µg/mL)	6.3 (≈ 27.4 µg/mL)

— publication PMC7047876, “Potent Chimeric Antimicrobial Derivatives of the Medicago truncatula NCR247 Symbiotic Peptide” (Frontiers in Microbiology, 2020)
